The results in this text go back to ChEMBL document CHEMBL1909046, “DrugMatrix in vitro pharmacology data”.

The nature of data set [1]: DRUGMATRIX: Calcium Channel Type L, Dihydropyridine radioligand binding (ligand: [3H] Nitrendipine). The format is cell membranes, Rattus norvegicus, Wistar, Cerebral cortex, Membrane. As to conditions: Not Active = under 50% inhibition at 10 µM.
Data set [2] concerns the target Carbonic anhydrase 2 (Homo sapiens, UniProt P00918). The data set can be described thus: DRUGMATRIX: Carbonic Anhydrase II enzyme inhibition (substrate: 4-Nitrophenyl acetate (4-NPA)). In kind it is tissue-based, Erythrocyte. The conditions noted are these: erythrocyte; Not Active = under 50% inhibition at 10 µM.
Data set [3] concerns the target T1, Leukotriene C4 synthase (Cavia porcellus, UniProt A6XA80).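 Also: enzyme inhibition assay of leukotriene C4 synthase, using LTA4 as the substrate; in other assays of this panel Not Active means under 50% inhibition at 10 µM.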
T1 sequence (A6XA80 whole entry): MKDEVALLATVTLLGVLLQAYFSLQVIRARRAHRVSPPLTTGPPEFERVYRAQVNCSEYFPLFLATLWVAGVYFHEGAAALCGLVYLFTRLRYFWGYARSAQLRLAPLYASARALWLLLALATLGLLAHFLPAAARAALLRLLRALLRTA
In kind it is tissue-based, Lung.

The target in data set [4] is Melanocortin receptor 5 (Homo sapiens, UniProt P33032). The format is cell membranes, HEK293, Membrane. As to conditions: hek293. Also: in other assays of this panel Not Active means under 50% inhibition at 10 µM.
For data set [5], the target named is T2, Muscarinic acetylcholine receptor M5 (Homo sapiens, UniProt P08912). Also: in other assays of this panel Not Active means under 50% inhibition at 10 µM.
T2 sequence (P08912 whole entry): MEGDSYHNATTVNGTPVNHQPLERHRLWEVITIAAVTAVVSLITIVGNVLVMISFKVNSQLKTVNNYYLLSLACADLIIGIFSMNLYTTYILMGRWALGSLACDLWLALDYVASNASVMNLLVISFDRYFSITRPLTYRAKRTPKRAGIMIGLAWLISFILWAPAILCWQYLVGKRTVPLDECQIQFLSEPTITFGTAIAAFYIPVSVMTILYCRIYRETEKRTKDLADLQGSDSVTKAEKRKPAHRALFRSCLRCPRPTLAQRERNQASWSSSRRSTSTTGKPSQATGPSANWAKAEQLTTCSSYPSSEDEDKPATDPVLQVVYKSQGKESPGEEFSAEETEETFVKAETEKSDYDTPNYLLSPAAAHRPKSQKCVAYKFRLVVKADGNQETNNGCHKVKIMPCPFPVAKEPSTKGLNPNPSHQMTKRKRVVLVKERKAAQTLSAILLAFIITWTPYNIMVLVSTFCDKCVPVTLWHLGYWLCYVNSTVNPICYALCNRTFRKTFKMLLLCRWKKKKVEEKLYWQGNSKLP
The format is cell membranes, Membrane. The conditions noted are these: cho-k1.

Data set [6] addresses Mu-type opioid receptor (Homo sapiens, UniProt P35372). The data set can be described thus: DRUGMATRIX: Opiate mu (OP3, MOP) radioligand binding (ligand: [3H] Diprenorphine). In kind it is cell membranes, CHO-K1, Membrane. As to conditions: cho-k1; Not Active = under 50% inhibition at 10 µM.
Data set [7] deals with Cytochrome P450 2C19 (Homo sapiens, UniProt P33261). As to conditions: bti-tn-5b1-4.
Cytochrome P450 2C19, sequence (P33261 whole entry): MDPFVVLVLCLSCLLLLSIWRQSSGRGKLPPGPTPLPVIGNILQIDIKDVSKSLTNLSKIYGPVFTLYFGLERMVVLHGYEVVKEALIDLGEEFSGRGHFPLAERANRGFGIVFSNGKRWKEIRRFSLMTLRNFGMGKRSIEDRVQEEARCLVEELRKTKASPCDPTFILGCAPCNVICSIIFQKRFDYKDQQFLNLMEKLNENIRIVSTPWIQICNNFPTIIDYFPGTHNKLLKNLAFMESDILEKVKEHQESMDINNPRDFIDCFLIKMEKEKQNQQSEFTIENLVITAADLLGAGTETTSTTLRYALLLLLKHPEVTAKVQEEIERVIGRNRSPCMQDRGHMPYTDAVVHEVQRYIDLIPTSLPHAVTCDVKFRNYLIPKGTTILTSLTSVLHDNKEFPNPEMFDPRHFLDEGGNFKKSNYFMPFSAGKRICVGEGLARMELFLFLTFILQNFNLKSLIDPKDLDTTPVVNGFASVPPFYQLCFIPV

Melanocortin receptor 5, sequence (P33032 whole entry): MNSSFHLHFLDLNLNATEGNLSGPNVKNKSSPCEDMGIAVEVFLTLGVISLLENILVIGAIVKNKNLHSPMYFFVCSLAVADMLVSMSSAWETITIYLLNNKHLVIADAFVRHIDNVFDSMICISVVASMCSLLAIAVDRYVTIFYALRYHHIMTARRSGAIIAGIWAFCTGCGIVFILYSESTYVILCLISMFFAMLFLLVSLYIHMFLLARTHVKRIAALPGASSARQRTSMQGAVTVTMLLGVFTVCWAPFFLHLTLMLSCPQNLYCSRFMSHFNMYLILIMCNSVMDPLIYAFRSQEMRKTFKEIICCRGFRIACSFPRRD
Mu-type opioid receptor, sequence (P35372 whole entry): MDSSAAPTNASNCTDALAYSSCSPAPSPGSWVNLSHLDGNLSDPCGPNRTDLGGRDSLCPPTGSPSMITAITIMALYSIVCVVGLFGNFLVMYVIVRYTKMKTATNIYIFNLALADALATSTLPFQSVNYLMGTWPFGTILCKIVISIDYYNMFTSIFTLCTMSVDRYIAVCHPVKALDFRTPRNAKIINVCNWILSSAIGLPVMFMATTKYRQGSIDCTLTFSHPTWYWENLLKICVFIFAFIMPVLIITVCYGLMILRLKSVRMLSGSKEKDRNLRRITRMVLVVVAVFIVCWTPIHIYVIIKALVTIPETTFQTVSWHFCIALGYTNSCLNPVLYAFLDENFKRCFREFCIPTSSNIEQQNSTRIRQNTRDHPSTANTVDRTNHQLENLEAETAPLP

Regarding `CC[C@]1(O)CC[C@H]2[C@@H]3CCC4=CCCC[C@@H]4[C@H]3CC[C@@]21C`, the IC50 entry in data set [1], in data set [2], in data set [3], in data set [4], in data set [5] and in data set [6] was “Not Active” in each case. In data set [1], the Ki entry is on record as “Not Active”.
For the compound `N[C@@H](Cc1ccc(F)cc1)C(=O)O`, the IC50 result in data set [1], in data set [2], in data set [3], in data set [4], in data set [5] and in data set [6] was “Not Active” in each case. Also, in data set [1], the Ki result was “Not Active”.
On to `O=C(c1ccccc1Cl)N1CCC(Cc2ccccc2)CC1`, for which the half-inhibitory concentration (IC50) result in data set [1], in data set [2], in data set [3], in data set [4], in data set [5] and in data set [6] was “Not Active” throughout. Further, the Ki result in data set [1] was “Not Active”.
`Clc1cc2c(cc1Cl)Oc1cc(Cl)c(Cl)cc1O2` [2,3,7,8-TETRACHLORODIBENZO-P-DIOXIN]: the IC50 entry in data set [1], in data set [2], in data set [3], in data set [4], in data set [5] and in data set [7] was “Not Active” in each case. The Ki result in data set [1] and in data set [7] was “Not Active” each time.
For `C[C@@H]1CC[C@H]2[C@@H](C)C(=O)O[C@@H]3O[C@@]4(C)CC[C@@H]1[C@]32OO4` [ARTEMISININ], the half-inhibitory concentration (IC50) result in data set [1], in data set [2], in data set [3], in data set [4], in data set [5] and in data set [6] was “Not Active” each time. Besides, in data set [1], the Ki result is “Not Active”.
On to `CC(C)C[C@H]1C(=O)N2CCC[C@H]2[C@]2(O)O[C@](NC(=O)[C@@H]3C=C4c5cccc6[nH]c(Br)c(c56)C[C@H]4N(C)C3)(C(C)C)C(=O)N12` [BROMOCRIPTINE], for which the IC50 entry in data set [1], in data set [2], in data set [3], in data set [4], in data set [5] and in data set [7] was “Not Active” throughout. In addition, the Ki entry in data set [1] and in data set [7] was “Not Active” throughout.
On to `CCC[C@@H]1C[C@@H](C(=O)N[C@@H]([C@H]2O[C@H](SC)[C@H](O)[C@@H](O)[C@H]2O)[C@H](C)Cl)N(C)C1` [CLINDAMYCIN], for which the IC50 result in data set [1], in data set [2], in data set [3], in data set [4], in data set [5] and in data set [6] was “Not Active” in each case. Besides, in data set [1], the Ki entry was “Not Active”.
In the case of `Nc1nc(N)nc(NC2CC2)n1` [CYROMAZINE], the concentration for half-maximal inhibition (IC50) entry in data set [1], in data set [2], in data set [3], in data set [4], in data set [5] and in data set [7] was “Not Active” each time. Besides, the Ki entry in data set [1] and in data set [7] was “Not Active” in each case.
Consider `CN1C(=O)CN=C(c2ccccc2)c2cc(Cl)ccc21` [DIAZEPAM], for which the IC50 result in data set [1], in data set [2], in data set [3], in data set [4], in data set [5] and in data set [6] was “Not Active” throughout. Further, in data set [1], the inhibition constant (Ki) result is “Not Active”.
As for `CN1C[C@H](C(=O)N[C@]2(C)O[C@@]3(O)[C@@H]4CCCN4C(=O)[C@H](Cc4ccccc4)N3C2=O)C[C@@H]2c3cccc4[nH]cc(c34)C[C@H]21` [DIHYDROERGOTAMINE], the IC50 result in data set [1], in data set [2], in data set [3], in data set [4], in data set [5] and in data set [6] was “Not Active” throughout. In addition, the inhibition constant Ki result in data set [1] was “Not Active”.
Consider `O=C(O)Cc1ccc(-c2ccccc2)cc1` [FELBINAC], for which the IC50 entry in data set [1], in data set [2], in data set [3], in data set [4], in data set [5] and in data set [6] was “Not Active” each time. Moreover, the Ki entry in data set [1] is recorded as “Not Active”.
With `CCOC(=O)C1=C(C)NC(C)=C(C(=O)OC)C1c1cccc(Cl)c1Cl` (stereo not given) [FELODIPINE], the IC50 in data set [1] (read-out: IC50) is 82 pM; in data set [2], “Not Active”; in data set [3], “Not Active”; in data set [4], “Not Active”; in data set [5], “Not Active”; in data set [6], “Not Active”. The Ki in data set [1] (read-out: Ki) is 53 pM.
For the compound `Cc1cn[nH]c1` [FOMEPIZOLE], the IC50 entry in data set [1], in data set [2], in data set [3], in data set [4], in data set [5] and in data set [6] was “Not Active” each time. The Ki entry in data set [1] is “Not Active”.
Regarding `Cc1cnc(C(=O)NCCc2ccc(S(=O)(=O)NC(=O)NC3CCCCC3)cc2)cn1` [GLIPIZIDE], the IC50 entry in data set [1], in data set [2], in data set [3], in data set [4], in data set [5] and in data set [6] was “Not Active” throughout. Also, in data set [1], the Ki entry is reported as “Not Active”.
`COc1ccccc1OCC(O)CO` (stereo not given) [GUAIFENESIN]: the IC50 entry in data set [1], in data set [2], in data set [3], in data set [4], in data set [5] and in data set [6] was “Not Active” throughout. Also, the Ki entry in data set [1] is “Not Active”.
As for `COc1ccc(Cc2nccc3cc(OC)c(OC)cc23)cc1OC` [PAPAVERINE], the IC50 result in data set [1], in data set [2], in data set [3], in data set [4] and in data set [5] was “Not Active” throughout. In addition, the Ki result in data set [1] was “Not Active”.
Regarding COBALT(II) ACETYLACETONATE, the IC50 entry in data set [1], in data set [2], in data set [3], in data set [4], in data set [5] and in data set [7] was “Not Active” each time. For the same compound, the Ki result in data set [1], in data set [2], in data set [3], in data set [4], in data set [5] and in data set [7] was “Not Active” throughout.
For the compound INSULIN HUMAN, the 50% inhibitory concentration (IC50) result in data set [1], in data set [2], in data set [3], in data set [4], in data set [5] and in data set [7] was “Not Active” in each case. For the same compound, the Ki result in data set [1], in data set [2], in data set [3], in data set [4], in data set [5] and in data set [7] was “Not Active” each time.
Turning to POLYVINYL ALCOHOL, the IC50 entry in data set [1], in data set [2], in data set [3], in data set [4], in data set [5] and in data set [7] was “Not Active” each time. Also, the Ki result in data set [1], in data set [2], in data set [3], in data set [4], in data set [5] and in data set [7] was “Not Active” each time.

As usually defined, the IC50 is the point on the concentration scale where inhibition reaches its midpoint. By Ki is commonly meant a dissociation constant, usually derived from enzyme kinetics or from competition with a known ligand.
